{"source": "patent US6037351A", "about": "“Method of inhibiting hepatitis B virus” (priority 1996, dated 2000)", "key": {"[1]": {"system": "mouse hepatitis virus (MHV)", "conditions": "appearance of E2 on the cell surface is delayed; cited from earlier work"}, "[2]": {"system": "HBV infection", "conditions": "patients; cited from earlier work"}, "[3]": {"conditions": "treatment of chronic hepatitis B; clinical tests suspended; cited from earlier work"}, "[4]": {"system": "α-glucosidase II", "conditions": "N-linked oligosaccharide processing enzyme; cited from earlier work"}, "[5]": {"system": "α-glucosidase I", "conditions": "N-linked oligosaccharide processing enzyme; cited from earlier work"}, "[6]": {"system": "hepatitis B virus (HBV)", "experiment": "HBV secretion under tunicamycin", "type": "cell-based", "conditions": "found by the present inventors"}, "[7]": {"system": "hepatitis B virus (HBV)", "conditions": "previously reported; cited from earlier work"}, "[8]": {"system": "cells", "conditions": "cited from earlier work"}, "[9]": {"system": "N-linked glycosylation of proteins", "conditions": "cited from earlier work"}}, "note": "Entries after “also recorded” stand apart in the source; their conditions may differ."}
{"molecule": "CN1C[C@H](O)[C@@H](O)[C@H](O)[C@H]1CO", "note": "[N-methyl deoxynojirimycin]", "values": [{"measurement": "formation of mouse hepatitis virus (in words)", "setting": "[1]", "value": "inhibit the formation of mouse hepatitis virus (MHV)"}]}
{"molecule": "Alpha interferon", "values": [{"measurement": "treatment of HBV infection (in words)", "setting": "[2]", "value": "promising results in some patients"}]}
{"molecule": "O=c1[nH]c(=O)n([C@@H]2O[C@H](CO)[C@@H](O)[C@@H]2F)cc1I", "note": "[fialuridine]", "values": [{"measurement": "drug-related liver failure in patients", "setting": "[3]", "value": "six of 20 patients"}]}
{"molecule": "OC[C@H]1NC[C@H](O)[C@@H](O)[C@@H]1O", "note": "[DNJ, 1,5-Dideoxy-1,5-imino-D-glucitol, reference compound]", "values": [{"measurement": "inhibition of α-glucosidase II (in words)", "setting": "[4]", "value": "known inhibitors"}, {"measurement": "inhibition of α-glucosidase I (in words)", "setting": "[5]", "value": "known inhibitors"}]}
{"molecule": "tunicamycin", "values": [{"measurement": "secretion of subviral particles (in words)", "setting": "[6]; subviral particles", "value": "not subviral particles is inhibited"}, {"measurement": "secretion of HBV virions (in words)", "setting": "[6]; virions", "value": "inhibited"}, {"measurement": "HBV secretion from HBV infected or HBV-producing cells (in words)", "setting": "[7]", "value": "no significant reduction of HBV secretion; also recorded: normal HBV particle secretion"}, {"measurement": "toxicity to cells (in words)", "setting": "[8]", "value": "very toxic to cells"}, {"measurement": "N-linked glycosylation of proteins (in words)", "setting": "[9]", "value": "complete inhibition"}]}
